Reference: patent US20100016300A1, “Imidazoacridine Compounds for Treating FLT3-Mediated Disorders” (priority 2006, published 2010)
Positions count from the first letter of the chain named. Like-named read-outs stand apart in the source and are kept apart here.

Experiments:
FGFR2 = target: T1, FGFR2 (Homo sapiens, UniProt P21802); assay: SelectScreen in vitro kinase screen, FGFR2; type: biochemical
T1 construct: the juxtamembrane, ATP and catalytic components projecting from the cell membrane into the cytosol have been expressed through recombinant genetic techniques; purchased Invitrogen, Inc. (SelectScreen platform)
T1 sequence (P21802 399-821 limits assumed): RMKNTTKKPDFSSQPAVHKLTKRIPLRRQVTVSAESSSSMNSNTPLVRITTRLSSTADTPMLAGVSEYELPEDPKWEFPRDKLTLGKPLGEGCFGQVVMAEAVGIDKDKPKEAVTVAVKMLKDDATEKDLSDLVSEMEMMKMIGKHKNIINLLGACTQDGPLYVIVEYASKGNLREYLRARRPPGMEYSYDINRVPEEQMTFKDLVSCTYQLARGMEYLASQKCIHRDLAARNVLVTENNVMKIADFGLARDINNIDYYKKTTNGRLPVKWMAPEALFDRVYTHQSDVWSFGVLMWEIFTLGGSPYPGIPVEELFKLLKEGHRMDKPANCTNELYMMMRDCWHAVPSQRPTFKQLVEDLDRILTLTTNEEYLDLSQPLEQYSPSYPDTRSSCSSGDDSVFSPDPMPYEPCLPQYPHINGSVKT
Description: (§1) The IC50 value is, therefore, a measure of potency. Another important feature is specificity.

NTRK1 = NTRK1 (Homo sapiens, UniProt P04629); assay: Kinase selectivity analysis (FIG. 4A), NTRK1; type: biochemical; conditions: in words
NTRK1, sequence (P04629 33-796): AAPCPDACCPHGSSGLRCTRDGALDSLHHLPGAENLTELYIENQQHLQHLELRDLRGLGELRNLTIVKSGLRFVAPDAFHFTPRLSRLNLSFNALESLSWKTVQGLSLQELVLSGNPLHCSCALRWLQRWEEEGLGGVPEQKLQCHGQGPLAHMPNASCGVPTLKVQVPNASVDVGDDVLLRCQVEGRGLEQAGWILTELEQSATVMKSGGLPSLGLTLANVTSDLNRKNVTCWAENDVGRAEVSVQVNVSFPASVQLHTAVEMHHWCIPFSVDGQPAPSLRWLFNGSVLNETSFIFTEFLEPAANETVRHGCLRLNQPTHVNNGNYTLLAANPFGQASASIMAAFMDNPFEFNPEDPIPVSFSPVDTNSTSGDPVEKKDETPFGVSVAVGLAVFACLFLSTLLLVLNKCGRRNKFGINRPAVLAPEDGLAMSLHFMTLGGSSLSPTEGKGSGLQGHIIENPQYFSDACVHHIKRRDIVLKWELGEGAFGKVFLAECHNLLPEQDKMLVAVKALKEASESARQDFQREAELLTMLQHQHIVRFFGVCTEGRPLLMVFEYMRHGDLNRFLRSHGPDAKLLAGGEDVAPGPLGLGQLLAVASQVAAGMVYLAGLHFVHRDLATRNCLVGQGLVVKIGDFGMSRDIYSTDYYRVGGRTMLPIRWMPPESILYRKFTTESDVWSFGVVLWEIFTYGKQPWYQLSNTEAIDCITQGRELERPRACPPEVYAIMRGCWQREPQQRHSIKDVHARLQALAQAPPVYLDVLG
Description: as §1

PDGFRb = PDGFRb (Homo sapiens, UniProt P09619); assay: Kinase selectivity analysis (FIG. 4A), PDGFRb; type: biochemical; conditions: in words
PDGFRb, sequence (P09619 33-1106): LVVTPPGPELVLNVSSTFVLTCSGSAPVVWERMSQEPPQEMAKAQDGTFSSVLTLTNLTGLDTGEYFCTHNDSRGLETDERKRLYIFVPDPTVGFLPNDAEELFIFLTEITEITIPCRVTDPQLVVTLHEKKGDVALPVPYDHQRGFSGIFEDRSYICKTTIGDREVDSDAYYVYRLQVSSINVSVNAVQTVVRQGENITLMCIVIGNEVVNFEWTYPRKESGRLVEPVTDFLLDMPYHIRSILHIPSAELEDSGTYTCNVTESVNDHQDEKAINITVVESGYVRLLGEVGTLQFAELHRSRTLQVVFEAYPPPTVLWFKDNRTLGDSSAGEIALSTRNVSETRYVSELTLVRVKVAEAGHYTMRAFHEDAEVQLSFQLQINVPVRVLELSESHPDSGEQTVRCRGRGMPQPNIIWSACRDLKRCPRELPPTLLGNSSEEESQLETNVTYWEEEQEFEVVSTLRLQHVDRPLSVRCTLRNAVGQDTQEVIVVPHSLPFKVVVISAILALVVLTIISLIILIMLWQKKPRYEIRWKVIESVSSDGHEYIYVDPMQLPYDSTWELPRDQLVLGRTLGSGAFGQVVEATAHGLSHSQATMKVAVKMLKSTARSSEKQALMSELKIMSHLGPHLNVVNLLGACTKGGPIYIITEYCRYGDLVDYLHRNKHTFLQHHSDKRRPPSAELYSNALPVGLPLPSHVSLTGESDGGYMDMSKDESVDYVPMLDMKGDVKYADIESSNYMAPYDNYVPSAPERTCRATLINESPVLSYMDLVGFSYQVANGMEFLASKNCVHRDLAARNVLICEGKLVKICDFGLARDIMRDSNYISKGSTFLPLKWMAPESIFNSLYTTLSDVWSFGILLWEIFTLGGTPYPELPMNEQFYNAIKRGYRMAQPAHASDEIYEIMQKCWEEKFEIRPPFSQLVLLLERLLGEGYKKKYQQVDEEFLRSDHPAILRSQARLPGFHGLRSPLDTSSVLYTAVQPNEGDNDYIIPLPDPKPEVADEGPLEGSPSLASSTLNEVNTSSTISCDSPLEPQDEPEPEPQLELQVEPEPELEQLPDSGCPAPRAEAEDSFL
Method: (§2) Testing of the compounds described in this invention was carried out using the SelectScreen™ platform from Invitrogen, Inc. (Carlsbad, Calif., USA) and the details of its performance are readily viewed via the web by linking to: http://www.invitrogen.com/downloads/SelectScm_Brochure.pdf.
(§3) Briefly the approach is based on treating each specific kinase with a unique substrate and optical reporter system in the presence of ATP at 100 micromolar or at the apparent optimal ATP concentration for each kinase. In controls, the substrate is phosphorylated and a baseline optimal response is recorded. Graded amounts of putative inhibitor are then added in separate increments to generate a dose response curve. The latter is obtained by fitting to a sigmoid saturation equation, such as the Hill equation, and the concentration of test article producing 50 per cent inhibition is then noted as the IC50. […] The IC50 value is, therefore, a measure of potency. Another important feature is specificity. It is considered a desirable property when claiming efficacy to determine how many kinases are inhibited by the same molecule. The fewer number inhibited points toward specificity; the greater to inhibitory promiscuity.
(§4) First the compounds of this invention were tested against a subset, the primary kinase screen, to determine initial activity at 1 and 0.1 micromolar concentrations.

PKC = assay: Kinase selectivity analysis (FIG. 4A), PKC; type: biochemical; conditions: in words
Method: as §2, §3, §4

FLT3 [1] = target: T2, FLT3 (Homo sapiens, UniProt P36888); assay: SelectScreen in vitro kinase screen, FLT3 (Example 2); type: biochemical; conditions: for activity against FLT3: in words
T2 construct: the juxtamembrane, ATP and catalytic components projecting from the cell membrane into the cytosol have been expressed through recombinant genetic techniques; purchased Invitrogen, Inc. (SelectScreen platform)
T2 sequence (P36888 564-993 limits assumed): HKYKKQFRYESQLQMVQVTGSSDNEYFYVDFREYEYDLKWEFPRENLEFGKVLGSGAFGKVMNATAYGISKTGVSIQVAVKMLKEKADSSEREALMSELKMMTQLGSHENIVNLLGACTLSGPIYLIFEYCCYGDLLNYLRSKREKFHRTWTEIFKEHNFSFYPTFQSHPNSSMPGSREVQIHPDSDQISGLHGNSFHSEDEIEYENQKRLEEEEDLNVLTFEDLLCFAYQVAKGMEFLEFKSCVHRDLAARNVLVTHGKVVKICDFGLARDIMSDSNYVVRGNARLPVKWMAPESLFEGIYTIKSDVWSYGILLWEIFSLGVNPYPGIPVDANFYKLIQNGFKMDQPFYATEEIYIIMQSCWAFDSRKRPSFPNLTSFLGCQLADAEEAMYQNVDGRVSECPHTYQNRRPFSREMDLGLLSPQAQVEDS
Description: as §1

all the other RTK's = assay: SelectScreen in vitro kinase screen, other RTK and TK enzymes; type: biochemical; conditions: read-out: IC50 against all the other RTK's
Description: as §1

FLT3 D835Y = target: T3, FLT3 D835Y (Homo sapiens, UniProt P36888, D835Y); assay: SelectScreen in vitro kinase screen, FLT3 mutant; type: biochemical; conditions: in words
T3 construct: the juxtamembrane, ATP and catalytic components projecting from the cell membrane into the cytosol have been expressed through recombinant genetic techniques; purchased Invitrogen, Inc. (SelectScreen platform)
T3 sequence (P36888 564-993 D835Y limits assumed): T2 sequence (P36888 564-993 limits assumed) with D272Y
Description: as §1

[2] = tested on: KDR, PDGF and TRK members of the RTK family; assay: SelectScreen in vitro kinase screen, closely related RTKs; type: biochemical; conditions: in words, relative to FLT3
Description: as §1

RS4(11) cells = assay: Cell viability in RS4(11) cells; type: cell-based, human
Description: (§5) It is now understood that an important subset of human myeloid leukemia cells overexpress FLT3 as constitutively activated mutations. The most prevalent of these is the internal tandem duplication. Two cell lines commonly used to test the potency of FLT3 inhibitors on cell growth and viability are the RS4(11) and MV4(11). The RS4(11) cell line, also known as RS4;11, was established from a bone marrow patient with acute lymphoblastic leukemia. This patient was […]. The cells lack surface and cytoplasmic immunoglobulin, and are negative for CD10. The cells have a characteristic chromosome translocation (4;11)(q21;q23), and an isochromosome for the long arm of chromosome 7. These cells express the wild-type FLT3 receptor and are further characterized by expression of the MHC Class II antigens (HLA DR+); CD9+; CD24+. The MV4(11) cell line, also known as MV-4-11, was established from the blast cells of a person with biphenotypic B myelomonocytic leukemia (ATCC). Other sources indicate this cell line is derived from acute monocytic leukemia (AML FAB M5). […] These cells express a mutant form of FLT3 containing an internal tandem duplication (ITD), and are further characterized by expression of CD4 (40-96%); CD10 (4-11%); CD15 (96-99%). […]

MV4(11) cells = assay: Cell viability in MV4(11) cells; type: cell-based, human; conditions: FLT3 ITD, compared with PKC412
Description: as §5

[3] = tested on: Experimental Autoimmune Encephalomyelitis (EAE); assay: Experimental autoimmune encephalomyelitis (EAE) in mice; type: in vivo, C57BL/6 mice; conditions: oral, from day 5: 10 mg/kg every 24 hrs, 20 mg/kg every 48 hrs, 30 mg/kg every 72 hrs; versus vehicle controls
Method: The EAE preparation used to test the efficacy of the imidazoacridinone analogs of the present invention followed a similar protocol as described by Small et al. (Patent Application WO 2006/020145 A2, 23 Feb. 2006) and was conducted by MD Biosciences, a contract research organization that provides in vivo and in vitro disease models as well as mode of action studies for general inflammatory screening, arthritis, IBD, and multiple sclerosis. C57BL/6 mice were immunized with proteolipid protein emulsified in Complete Freund's Adjuvant on day 0 of the study. After a booster with pertussis toxin also on day 0 and then on day 2, the mice were treated on day 5 after disease induction with three oral dosing schedules of XF-2, at 10 mg/kg every 24 hrs, 20 mg/kg every 48 hrs and 30 mg/kg every 72 hrs.

HL-60 leukemia = assay: Growth arrest in HL-60 leukemia; conditions: Homo sapiens, HL-60, read-out: EC50 growth arrest
Method: When standard protocols for adherent cell culture are followed, according to the instructions supplied by the American Type Culture Collection for the two line, the cell will proliferate with an approximate 30 hour doubling time.

FLT3 [4] = target: T2, FLT3; assay: SelectScreen in vitro dose response assay against FLT3 (Example 7); type: biochemical; conditions: ATP at 100 micromolar; 4 parameter Hill equation
Method: The terms “IC50” and “EC50” are used interchangeably. As used herein, “EC50” refers to nMolar concentration at median percent inhibition determined by dose respose (DR) assay. As used herein, the term “E1000” refers to percent inhibition at 1000 nMolar determined by assay. EC50 was calculated based on dose response curve was fitted to 4 parameter Hill equation.
The compounds were then re-tested by adding graded amounts of putative inhibitor which were added in 5 separate increments to generate a dose response curve. The latter is obtained by fitting to a 4 parameter Hill equation, a sigmoid saturation equation.
The 2× FLT3/Tyr 02 peptide mixture was prepared in 50 mM HEPES pH 7.5, 0.01 BRIJ-35, 10 mM MgCl2, 1 mM EGTA. The final 10 uL kinase reaction consists of 0.6-76.0 ng FLT3 and 2 uM Tyr 02 peptide in 50 mM HEPES pH 7.5, 0.01% BRIJ-35, 10 mM Mg Cl2, 1 mM EGTA. After 1 hour kinase reaction incubation, 5 uL of a 1:64 dilution of development reagent A was added.

[5] = read-out: IC50 as FLT3 inhibitors (FIG. 3)

SMILES: C[C@]12O[C@H](C[C@]1(O)CO)n1c3ccccc3c3c4c(c5c6ccccc6n2c5c31)CNC4=O [CEP-701, reference compound]
- inhibition of FGFR2 (FGFR2; in words, FIG. 4A): inhibits
- inhibition of NTRK1 (NTRK1): inhibits

SMILES: CO[C@@H]1[C@H](N(C)C(=O)c2ccccc2)C[C@H]2O[C@]1(C)n1c3ccccc3c3c4c(c5c6ccccc6n2c5c31)C(=O)NC4 [PKC-412]
- cross-reaction with PDGFRb (PDGFRb): cross-reacts
- cross-reaction with PKC (PKC): cross-reacts

SMILES: CCN(CC)CCNc1ccc2ncn3c4ccc(O)cc4c(=O)c1c23 [XF-2]
- activity against FLT3 (FLT3 [1]): active
- IC50 (FLT3 [1]; read-out: IC50 against FLT3): ~10 nM
- IC50 (FLT3 [1]; [5]): 8 nM
- drop of inhibitory activity on FGFR2 relative to FLT3, in EC50 value (FGFR2; FGFR2 versus FLT3): 100 fold
- IC50 (FGFR2; read-out: IC50 against FGFR2): > 2000 nM
- IC50 (all the other RTK's): > 5000 nM
- activity against FLT3 mutant form (FLT3 D835Y): active
- inhibitory activity against KDR, PDGF and TRK members of the RTK family [2]: many fold less pronounced
- EC50 (RS4(11) cells; Homo sapiens, read-out: effective concentration to decrement cell viability by 50% (EC50), 72 hrs of continuous exposure): 34 nM
- cell viability potency, in words (MV4(11) cells): closely matched
- clinical scores [3]: lower clinical scores
- EC50 (HL-60 leukemia): > 10000 nM

SMILES: O=c1c2cc(O)ccc2n2cnc3ccc(NCCN4CCOCC4)c1c32 [XF-22]
- activity against FLT3 (FLT3 [1]): active
- IC50 (FLT3 [1]; [5]): 12 nM
- activity against FLT3 mutant form (FLT3 D835Y): active
- inhibitory activity against KDR, PDGF and TRK members of the RTK family [2]: many fold less pronounced
- EC50 cell viability, in words (RS4(11) cells; 72 hrs, compared with PKC-412): closer to the micromolar mark
- cell viability potency, in words (MV4(11) cells): less activity
- EC50 (HL-60 leukemia): > 10000 nM

SMILES: CN(C)CCNc1ccc2ncn3c4ccc(O)cc4c(=O)c1c23 [XF-0025]
- EC50 (FLT3 [4]): 25 nM

SMILES: O=c1c2cc(O)ccc2n2cnc3ccc(NCCCN4CCOCC4)c1c32 [XF-0113]
- activity against FLT3 (FLT3 [1]): active
- activity against FLT3 mutant form (FLT3 D835Y): active
- inhibitory activity against KDR, PDGF and TRK members of the RTK family [2]: many fold less pronounced
- EC50 (FLT3 [4]): 50 nM

SMILES: O=c1c2c(NCCN3CCOCC3)ccc3ncn(c4ccc5[nH]ncc5c14)c32 [XF-0122]
- EC50 (FLT3 [4]): 51 nM

SMILES: O=c1c2cc(O)ccc2n2cnc3ccc(NCCN4CCCC4)c1c32 [XF-0241]
- EC50 (FLT3 [4]): 50 nM

SMILES: CN(C)CCNc1ccc2ncn3c4ccccc4c(=O)c1c23 [XF-0308]
- EC50 (FLT3 [4]): 133 nM

SMILES: O=c1c2ccccc2n2cnc3ccc(NCCNCCO)c1c32 [XF-0328]
- EC50 (FLT3 [4]): 135 nM
